Laboratory results reported in patent publication US8697694B2, “Substituted pyridine and pyrimidine derivatives and their use in treating viral infections” (priority 2008, dated 2014).
Like-named read-outs stand apart in the source and are kept apart here.

System: HCV replicon cells
Experiment: Cell-based HCV replicon assay (replicon RNA level by real time PCR, Taqman)
Settings: Hepatitis C virus, 72 h, HCV replicon cells, read-out: EC90 (μM) range
Procedure, shortened: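 HCV replicon cells treated 3 days with 10 serial 2-fold compound dilutions (top 25 μM to 1 μM; 0.5% DMSO, 10% FBS). Replicon RNA quantified by multiplex Taqman RT-PCR (NS5B amplicon, GAPDH control); EC50 and EC90 = concentrations giving ΔCT of 1 and 3.2 over baseline.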

[1] = replicon RNA level by real time PCR, harvested day 3
[2] = replicon RNA level by real time PCR (Taqman), harvested on day 3, calculated EC90 reported as range class
[3] = harvested on day 3, replicon RNA by real time PCR, calculated EC90 reported as range class
[4] = harvested day 3, replicon RNA by real time PCR, given as number
[5] = harvested day 3, replicon RNA by real time PCR, reported as range class
[6] = replicon RNA level by real time PCR (Taqman), day 3, calculated EC90

Cc1ccsc1CCNc1nc(C)c(-c2nc3ccccc3s2)c(N[C@@H]2C[C@H](CO)[C@@H](O)[C@H]2O)n1 [Example 1706]
EC90 [1]: 0.5 to 5 µM

Cc1nc(N(C)C)nc(N[C@@H]2C[C@H](CO)[C@@H](O)[C@H]2O)c1-c1nc2cnccc2s1 [Example 533]
EC90 [2]: > 5 µM

Cc1nc(NCC2CC2)nc(N[C@@H]2C[C@H](CO)[C@H]3OC(C)(C)O[C@H]32)c1-c1cc2cc(C(F)(F)F)ncc2o1 [Example 141]
EC90 [3]: 0.5 to 5 µM

COc1cccc2sc(-c3c(C)nc(NCC4CC4)nc3N[C@@H]3C[C@H](CO)[C@@H](O)[C@H]3O)nc12 [Example 1067]
EC90 [2]: < 0.5 µM

Cc1nc(NCC2CC2)nc(N[C@@H]2CC[C@@H](O)[C@@]2(C)O)c1-c1nc2ccccc2s1 [Example 1701]
EC90 [1]: 0.5 to 5 µM

Cc1nc(NCC2CC2)nc(N[C@@H]2C[C@H](CO)[C@@H](O)[C@H]2O)c1-c1cc2cc(OCC(C)(C)C)nc(C)c2o1 [Example 45]
EC90 [4]: > 25 µM

CCc1cc2cc(-c3c(C)nc(NCCC(F)(F)F)nc3N[C@@H]3C[C@H](CO)[C@@H](O)[C@H]3O)oc2cn1 [Example 521]
EC90 [3]: < 0.5 µM

Cc1nc(NC(C)c2ccco2)nc(N[C@@H]2C[C@H](CO)[C@H]3OC(C)(C)O[C@H]32)c1-c1nc2ccccc2s1 (stereo partly shown) [Example 1101]
EC90 [2]: > 5 µM

Cc1nc(NCC(F)(F)F)nc(N[C@@H]2C[C@H](CNS(=O)(=O)C(F)(F)F)[C@@H](O)[C@H]2O)c1-c1nc2ccccc2s1 [Example 1523]
EC90 [1]: 0.5 to 5 µM

Cc1nc(NCCCC(F)(F)F)nc(N[C@@H]2C[C@H](CO)[C@@H](O)[C@H]2O)c1-c1nc2ccccc2s1 [Example 225]
EC90 [5]: < 0.5 µM

Cc1nc(NCC(F)(F)F)nc(N[C@@H]2C[C@H](CO)[C@@H](O)[C@H]2O)c1-c1cc2ccccc2s1 [Example 1604]
EC90 [1]: > 5 µM

Cc1nc(NCc2cccs2)nc(N[C@@H]2CCCC2=O)c1-c1nc2ccccc2s1 (racemic) [Example 338]
EC90 [3]: < 0.5 µM

CC1(C)O[C@@H]2[C@@H](CO)C[C@@H](Nc3nc(N)nc(-c4nc5c(F)cc(F)cc5s4)c3-c3nc4c(F)cc(F)cc4s3)[C@@H]2O1 [Example 185]
EC90 [5]: > 5 µM

Cc1nc(NCC(F)(F)F)nc(N[C@@H]2C[C@H](O)[C@@H](O)[C@H]2O)c1-c1nc2ccccc2s1 [Example 1366]
EC90 [1]: 0.5 to 5 µM

CN(C)c1ccc2nc(-c3c(Cl)nc(N)nc3N[C@@H]3C[C@H](CO)[C@@H](O)[C@H]3O)sc2c1 [Example 115]
EC90 [5]: > 5 µM

Nc1nc(Cl)c(-c2nc3ccccc3o2)c(N[C@@H]2C[C@H](CO)[C@@H](O)[C@H]2O)n1 [Example 109]
EC90 [5]: < 0.5 µM

Cc1nc(N)nc(N[C@@H]2C[C@H](CO)[C@@H](O)[C@H]2O)c1-c1nc2cnccc2s1 [Example 1325]
EC90 [2]: 0.5 to 5 µM

COCCNc1nc(Cl)c(-c2cc3cc(OC)nc(C)c3o2)c(N[C@@H]2C[C@H](CO)[C@@H](O)[C@H]2O)n1 [Example 18]
EC90 [5]: < 0.5 µM

CCOCCNc1nc(C)c(-c2nc3ccccc3o2)c(N[C@@H]2C[C@H](CO)[C@@H](O)[C@H]2O)n1 [Example 529]
EC90 [2]: < 0.5 µM

Cc1ccc([C@H](Nc2nc(C)c(-c3nc4ccccc4s3)c(N[C@@H]3C[C@H](CO)[C@H]4OC(C)(C)O[C@H]43)n2)C(F)(F)F)cc1 [Example 2004]
EC90 [6]: 0.5 to 5 µM

OC[C@H]1C[C@@H](Nc2nc(N3CCOCC3)nc(Cl)c2-c2nc3ccccc3s2)[C@H](O)[C@@H]1O [Example 116]
EC90 [5]: 0.5 to 5 µM

CCOCCNc1nc(Cl)c(-c2nc3ccccc3s2)c(N[C@@H]2C[C@H](CO)[C@@H](O)[C@H]2O)n1 [Example 206]
EC90 [5]: < 0.5 µM

Cc1nc(NC2(c3ccccc3)CC2)nc(N[C@@H]2C[C@H](CO)[C@@H](O)[C@H]2O)c1-c1nc2ccccc2s1 [Example 1232]
EC90 [2]: 0.5 to 5 µM

Cc1nc(Nc2cccc3cccnc23)nc(N[C@@H]2C[C@H](CO)[C@@H](O)[C@H]2O)c1-c1nc2ccccc2s1 [Example 1620]
EC90 [1]: > 5 µM

COc1cc2cc(-c3c(Cl)nc(N)nc3N[C@@H]3C[C@H](COC(=O)C(F)(F)F)[C@@H](O)[C@H]3O)oc2cn1 [Example 10]
EC90 [5]: < 0.5 µM

Cc1nc(NCC(F)(F)F)nc(N[C@@H]2C[C@H](COC(=O)[C@@H](N)C(C)C)[C@@H](O)[C@H]2O)c1-c1nc2ccccc2s1 [Example 1133]
EC90 [2]: 0.5 to 5 µM

Nc1nc(Cl)c(-c2cscn2)c(N[C@@H]2C[C@H](CO)[C@@H](O)[C@H]2O)n1 [Example 161]
EC90 [5]: > 5 µM

CCc1cc2cc(-c3c(C)nc(NCc4ccccn4)nc3N[C@@H]3C[C@H](CO)[C@H]4OC(C)(C)O[C@H]43)oc2cn1 [Example 343]
EC90 [3]: > 5 µM

Cc1nc(N[C@H](C)c2ccc(OC(F)(F)F)cc2)nc(N[C@@H]2C[C@@H](C(C)O)[C@@H](O)[C@H]2O)c1-c1nc2cnccc2s1 (stereo partly shown) [Example 1652]
EC90 [1]: < 0.5 µM

Cc1ccsc1CNc1nc(C)c(-c2nc3ccccc3s2)c(N[C@@H]2C[C@H](CO)[C@@H](O)[C@H]2O)n1 [Example 479]
EC90 [3]: < 0.5 µM

COC[C@H](C)Nc1nc(C)c(-c2nc3ccccc3s2)c(N[C@@H]2C[C@H](CO)[C@@H](O)[C@H]2O)n1 [Example 439]
EC90 [3]: < 0.5 µM

Nc1nc(Cl)c(-c2nc3ccc(Cl)cc3s2)c(N[C@@H]2C[C@H](CO)[C@@H](O)[C@H]2O)n1 [Example 188]
EC90 [5]: > 5 µM

Cc1nc(Nc2ccncc2)nc(N[C@@H]2C[C@H](CO)[C@@H](O)[C@H]2O)c1-c1nc2ccccc2s1 [Example 1051]
EC90 [2]: 0.5 to 5 µM

CN(C)C(=O)c1ccc2cc(-c3c(Cl)nc(N)nc3N[C@@H]3C[C@H](CO)[C@@H](O)[C@H]3O)oc2c1 [Example 176]
EC90 [5]: > 5 µM

CCc1cc2cc(-c3c(Cl)nc(N)nc3N[C@@H]3C[C@H](CO)[C@@H](O)[C@H]3O)oc2c(C)n1 [Example 309]
EC90 [5]: < 0.5 µM

COCCNc1nc(C)c(-c2nc3cc(OC)ccc3s2)c(N[C@@H]2C[C@H](CO)[C@@H](O)[C@H]2O)n1 [Example 1009]
EC90 [2]: 0.5 to 5 µM

CCCCCNc1nc(C)c(-c2nc3ccccc3s2)c(N[C@@H]2C[C@H](CO)[C@@H](O)[C@H]2O)n1 [Example 435]
EC90 [3]: < 0.5 µM

CCCCNc1nc(C)c(-c2nc3ccccc3s2)c(N[C@@H]2C[C@H](CO)[C@@H](O)[C@H]2O)n1 [Example 434]
EC90 [3]: < 0.5 µM

Cc1nc(NCC(F)(F)F)nc(N[C@@H]2C[C@H](CN(C)C)[C@@H](O)[C@H]2O)c1-c1nc2ccccc2s1 [Example 1016]
EC90 [2]: 0.5 to 5 µM

Cc1nc(NCCOC(C)C)nc(N[C@@H]2C[C@H](CO)[C@@H](O)[C@H]2O)c1-c1nc2ccccc2s1 [Example 220]
EC90 [5]: < 0.5 µM

CCCc1nccc2sc(-c3c(C)nc(N[C@H](C)C(F)(F)F)nc3N[C@@H]3C[C@H](CO)[C@@H](O)[C@H]3O)nc12 [Example 1380]
EC90 [1]: < 0.5 µM

COCc1cc2cc(-c3c(C)nc(NCc4nccs4)nc3N[C@@H]3C[C@H](CO)[C@@H](O)[C@H]3O)oc2cn1 [Example 340]
EC90 [3]: < 0.5 µM

OC[C@H]1C[C@@H](Nc2nc(NC(CF)CF)nc(Cl)c2-c2nc3ccccc3s2)[C@H](O)[C@@H]1O [Example 129]
EC90 [3]: < 0.5 µM

COCCNc1nc(C)c(-c2nc3cc(OC(F)F)c(OC(F)F)cc3s2)c(N[C@@H]2C[C@H](CO)[C@@H](O)[C@H]2O)n1 [Example 1004]
EC90 [2]: 0.5 to 5 µM

COc1cc(Nc2nc(C)c(-c3nc4ccccc4s3)c(N[C@@H]3C[C@H](CO)[C@@H](O)[C@H]3O)n2)cc(OC)c1 [Example 1230]
EC90 [2]: > 5 µM

Cc1nc(N[C@H](C)c2ccc(OC(F)(F)F)cc2)nc(N[C@@H]2C[C@H](CO)[C@@H](O)[C@H]2O)c1-c1nc2c(C)nccc2s1 [Example 1528]
EC90 [1]: < 0.5 µM

CCCOc1cc2cc(-c3c(C)nc(NCC(C)(C)C)nc3N[C@@H]3C[C@H](CO)[C@@H](O)[C@H]3O)oc2cn1 [Example 61]
EC90 [4]: > 1 µM

Cc1nc(NCc2c(F)cccc2F)nc(N[C@@H]2C[C@H](CO)[C@@H](O)[C@H]2O)c1-c1nc2cnccc2s1 [Example 1804]
EC90 [1]: < 0.5 µM

CCCc1nccc2sc(-c3c(C)nc(N[C@H](C)C4CC4)nc3N[C@@H]3C[C@H](CS(C)(=O)=O)[C@@H](O)[C@H]3O)nc12 [Example 1381]
EC90 [1]: < 0.5 µM

COc1cc(CCNc2nc(C)c(-c3nc4cnccc4s3)c(N[C@@H]3C[C@H](CO)[C@H]4OC(C)(C)O[C@H]43)n2)cc(OC)c1 [Example 2009]
EC90 [6]: < 0.5 µM

Cc1nc(NCC(F)(F)F)nc(NC[C@@H]2CC2(CO)CO)c1-c1nc2ccccc2s1 [Example 1618]
EC90 [1]: 0.5 to 5 µM

COc1cc(OC)cc(C(C)Nc2nc(C)c(-c3nc4ccccc4s3)c(N[C@@H]3C[C@H](CO)[C@@H](O)[C@H]3O)n2)c1 (stereo partly shown) [Example 1209]
EC90 [2]: 0.5 to 5 µM

Cc1nc(NCC(C)(C)C)nc(N[C@@H]2C[C@H](CO)[C@@H](O)[C@H]2O)c1-c1nc2c(C)nccc2s1 [Example 1319]
EC90 [2]: < 0.5 µM

Cc1nc(NCC2CCCO2)nc(N[C@@H]2C[C@H](CO)[C@@H](O)[C@H]2O)c1-c1nc2ccccc2s1 (stereo partly shown) [Example 325]
EC90 [3]: < 0.5 µM

CCc1nccc2cc(-c3c(Cl)nc(N)nc3N[C@@H]3C[C@H](CO)[C@@H](O)[C@H]3O)oc12 [Example 308]
EC90 [5]: < 0.5 µM

Cc1nc(NCC(C)(C)CC2CC2)nc(N[C@@H]2C[C@H](CO)[C@@H](O)[C@H]2O)c1-c1nc2cnccc2s1 [Example 1318]
EC90 [2]: < 0.5 µM

Cc1nc(NCC(F)(F)F)nc(N[C@@H]2C[C@H](CO)[C@@H](O)[C@@H]2O)c1-c1nc2ccccc2s1 [Example 1253]
EC90 [2]: 0.5 to 5 µM

[2H]C([2H])(Nc1nc(C)c(-c2nc3ccccc3s2)c(N[C@@H]2C[C@H](CO)[C@@H](O)[C@H]2O)n1)c1cc(OC)cc(OC)c1 [Example 1244]
EC90 [2]: < 0.5 µM
